pIC50: −log10 of the molar value. Read-outs that look alike come from different tables or passages of the source.
Key:
[1] = biological target: T1, recombinant form of Glutaminase 1 (GAC) (Homo sapiens, UniProt O94925); assay: Recombinant Enzyme Assay - Time Dependence (60 min preincubation); assay type: biochemical
T1 sequence (O94925 137-598 isoform O94925-3 limits assumed): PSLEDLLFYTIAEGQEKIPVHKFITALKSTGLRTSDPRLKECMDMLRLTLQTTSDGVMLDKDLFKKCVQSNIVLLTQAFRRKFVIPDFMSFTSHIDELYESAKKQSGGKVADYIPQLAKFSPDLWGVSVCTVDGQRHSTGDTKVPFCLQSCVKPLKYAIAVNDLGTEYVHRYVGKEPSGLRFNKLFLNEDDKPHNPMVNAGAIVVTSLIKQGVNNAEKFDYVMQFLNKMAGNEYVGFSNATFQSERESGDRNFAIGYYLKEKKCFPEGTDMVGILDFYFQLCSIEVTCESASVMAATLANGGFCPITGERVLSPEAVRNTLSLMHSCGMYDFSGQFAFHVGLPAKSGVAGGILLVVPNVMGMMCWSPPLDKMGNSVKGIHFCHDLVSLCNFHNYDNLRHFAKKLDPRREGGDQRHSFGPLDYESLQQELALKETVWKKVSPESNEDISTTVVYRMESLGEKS
Method: The enzyme/compound mix was sealed with sealing foil (USA Scientific) and allowed to incubate, with mild agitation, for 60 minutes at 20° C. Enzymatic reaction was started with the addition of 50 μL of substrate solution (50 mM Tris-HCl pH 8.0, 0.2 mM EDTA, 150 mM K2HPO4, 0.1 mg/ml BSA, 1 mM DTT, 20 mM L-glutamine, 2 mM NAD^+, and 10 ppm antifoam) and read in a Molecular Devices M5 plate reader at 20° C. The plate reader was configured to read absorbance (=340 nm) in kinetic mode for 15 minutes. Data was recorded as milli-absorbance units per minute and slopes were compared to a control compound and a DMSO-only control on the same plate. Compounds with slopes less than the DMSO control were considered inhibitors and plate variability was assessed using the control compound.

P493-6 (myc "on") cells = assay: Cell Proliferation Assay; assay type: cell-based
Method in brief: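 P493-6 cells with myc on, 10,000 per well in RPMI/10% FBS, exposed to serially diluted compound (0.5% DMSO final) for 72 h at 37 °C, 5% CO2. Antiproliferative effect read by Cell Titer Glo luminescence or Viacount FACS viability count.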

[2] = P493-6, 72 h, read-out: Cell prolif P493 72 h IC50, P493-6 cells, 72 h
[3] = read-out: GAC Delta N2 IC50 60 min preinc

| Compound | pIC50 (P493-6 (myc "on") cells; [2]) | further results |
| --- | --- | --- |
| O=C(Cc1cccc(Br)c1)Nc1nnc(CCCCc2nnc(NC(=O)Cc3cccc(Br)c3)s2)s1 [Compound 284] | – | pIC50 [1]: 7.30 |
| CCCC(=O)OCN(C(=O)Cc1cccc(CC(=O)N2CCC(F)(F)CC2)c1)c1nnc(CCCCc2ccc(NC(=O)Cc3ccccc3)nn2)s1 [Compound 570] | 8.05 | – |
| CC(C)(C)OC(=O)NCc1cccc(CC(=O)Nc2ccc(CCCCc3nnc(NC(=O)Cc4cccc(CNC(=O)OC(C)(C)C)c4)s3)nn2)c1 [Compound 571] | 8.00 | – |
| CCOC(=O)NCc1cccc(CC(=O)Nc2ccc(CCCCc3nnc(NC(=O)Cc4cccc(CNC(=O)OCC)c4)s3)nn2)c1 [Compound 572] | 8.40 | – |
| CCOC(=O)NCc1cc(C(C)C(=O)Nc2nnc(CCCCc3ccc(NC(=O)Cc4ccccc4)nn3)s2)ccc1F (stereo not drawn) [Compound 574] | 7.55 | – |
| COc1ccc(CC(=O)Nc2nnc(CCCCc3ccc(NC(=O)Cc4ccccc4)nn3)s2)cc1O [Compound 582] | 7.34 | – |
| Nc1ccc(CCCCc2nnc(NC(=O)Cc3cccc(OC(F)(F)F)c3)s2)nn1 [Compound 584] | 5.85 | – |
| CC(C)(C)OC(=O)NCc1cccc(CC(=O)Nc2nnc(CCCCc3ccc(NC(=O)Cc4cccc(OC(F)(F)F)c4)nn3)s2)c1 [Compound 586] | – | pIC50 [1, 3]: 7.89 |
| COC(=O)NC(C)c1cccc(CC(=O)Nc2ccc(CCCCc3nnc(NC(=O)Cc4ccccc4)s3)nn2)c1 (stereo not drawn) [Compound 589] | 7.60 | – |
| CC(C(=O)Nc1nnc(CCCCc2ccc(NC(=O)Cc3cccc(CNC(=O)OCCF)c3)nn2)s1)c1ccccc1 (stereo not drawn) [Compound 591] | 7.48 | – |
| CC(C)NC(=O)OC(C)c1cccc(CC(=O)Nc2nnc(CCCCc3ccc(NC(=O)Cc4ccccc4)nn3)s2)c1 (stereo not drawn) [Compound 598] | 8.40 | – |
| CC(C(=O)Nc1ccc(CCCCc2nnc(NC(=O)Cc3ccccc3)s2)nn1)c1ccc(F)c(CN(C)C(=O)OC(C)(C)C)c1 (stereo not drawn) [Compound 599] | 7.41 | – |
| CC(NC(=O)OC(C)(C)C)c1cccc(CC(=O)Nc2ccc(CCCCc3nnc(NC(=O)C(C)c4ccccc4)s3)nn2)c1 (stereo not drawn) [Compound 603] | 7.64 | – |
| COC(C(=O)Nc1nnc(CCCCc2ccc(NC(=O)Cc3cccc(CNC(=O)CC(O)C(F)(F)F)c3)nn2)s1)c1ccccc1 (stereo not drawn) [Compound 604] | 7.38 | – |
| COC(C(=O)Nc1nnc(CCCCc2ccc(NC(=O)Cc3cccc(CNC(=O)CC(C)(O)C(F)(F)F)c3)nn2)s1)c1ccccc1 (stereo not drawn) [Compound 605] | 7.74 | – |
| CC(C(=O)Nc1nnc(CCCCc2ccc(NC(=O)Cc3cccc(CNC(=O)CC(O)C(F)(F)F)c3)nn2)s1)c1ccccc1 (stereo not drawn) [Compound 606] | 7.35 | – |
| CC(C(=O)Nc1nnc(CCCCc2ccc(NC(=O)Cc3cccc(CNC(=O)CC(C)(O)C(F)(F)F)c3)nn2)s1)c1ccccc1 (stereo not drawn) [Compound 607] | 7.33 | – |
| CCNC(=O)OC(C)c1cccc(CC(=O)Nc2ccc(CCCCc3nnc(NC(=O)Cc4ccccc4)s3)nn2)c1 (stereo not drawn) [Compound 610] | 7.96 | – |
| CC(O)c1cccc(CC(=O)Nc2ccc(CCCCc3nnc(NC(=O)Cc4ccccc4)s3)nn2)c1 (stereo not drawn) [Compound 611] | 7.40 | – |
| CC(C(=O)Nc1ccc(CCCCc2nnc(NC(=O)C(C)c3ccccc3)s2)nn1)c1ccccc1 (stereo not drawn) [Compound 613] | 6.35 | – |
| O=C(Cc1ccccc1OC(F)(F)F)Nc1ccc(CCCCc2nnc(NC(=O)Cc3ccccc3)s2)nn1 [Compound 614] | – | pIC50 [1, 3]: 8.10 |
| O=C(Cc1ccc(OC(F)(F)F)cc1)Nc1ccc(CCCCc2nnc(NC(=O)Cc3ccccc3)s2)nn1 [Compound 615] | – | pIC50 [1, 3]: 8.05 |
| CS(=O)(=O)CCCOc1cccc(CC(=O)Nc2ccc(CCCCc3nnc(NC(=O)Cc4ccccc4)s3)nn2)c1 [Compound 623] | 7.59 | – |

| Compound | pIC50 (P493-6 (myc "on") cells; [2]) | further results |
| --- | --- | --- |
| O=C(O)Cc1cccc(OCC(=O)Nc2nnc(CCCCc3ccc(NC(=O)Cc4ccccc4)nn3)s2)c1 [Compound 627] | 6.07 | – |
| COC(=O)Cc1cccc(OCC(=O)Nc2nnc(CCCCc3ccc(NC(=O)Cc4ccccc4)nn3)s2)c1 [Compound 628] | 6.77 | – |
| CS(=O)(=O)Cc1cccc(CC(=O)Nc2nnc(CCCCc3ccc(NC(=O)Cc4ccccc4)nn3)s2)c1 [Compound 634] | 7.32 | – |
| CC(C(=O)Nc1nnc(CCCCc2ccc(NC(=O)Cc3cccc(OC(F)(F)F)c3)nn2)s1)c1ccccc1 (stereo not drawn) [Compound 636] | – | pIC50 [1, 3]: 8.10 |
| O=C(Cc1ccccc1)Nc1nnc(CCCCc2nnc(NC(=O)Cc3ccccc3)o2)o1 [Compound 637] | < 4.30 | – |
| O=C(Cc1cccnc1)Nc1nnc(CCSCCc2nnc(NC(=O)Cc3cccnc3)s2)s1 [Compound 638] | 5.24 | – |
| Cc1noc(Cc2cccc(CC(=O)Nc3ccc(CCCCc4nnc(NC(=O)Cc5ccccc5)s4)nn3)c2)n1 [Compound 648, 2-(3-((3-methyl-1,2,4-oxadiazol-5-yl)methyl)phenyl)-N-(6-(4-(5-(2-phenylacetamido)-1,3,4-thiadiazol-2-yl)butyl)pyridazin-3-yl)acetamide] | 7.96 | – |
| O=C(Cc1ccccc1)Nc1ccc(CCCCc2nnc(NC(=O)Cc3cccc4c3CNC4)s2)nn1 [Compound 650] | 6.85 | – |
| CC(=O)N1Cc2cccc(CC(=O)Nc3nnc(CCCCc4ccc(NC(=O)Cc5ccccc5)nn4)s3)c2C1 [Compound 651] | 7.43 | – |
| Cc1nnc(Cc2cccc(CC(=O)Nc3ccc(CCCCc4nnc(NC(=O)Cc5ccccc5)s4)nn3)c2)o1 [Compound 652, 2-(3-((5-methyl-1,3,4-oxadiazol-2-yl)methyl)phenyl)-N-(6-(4-(5-(2-phenylacetamido)-1,3,4-thiadiazol-2-yl)butyl)pyridazin-3-yl)acetamide] | 7.41 | – |
| CC(NC(=O)OC(C)(C)C)c1cc(CC(=O)Nc2nnc(CCCCc3ccc(NC(=O)Cc4ccccc4)nn3)s2)ccc1F (stereo not drawn) [Compound 653] | 8.00 | – |
| CC(NC(=O)OC(C)(C)C)c1cc(CC(=O)Nc2ccc(CCCCc3nnc(NC(=O)Cc4ccccc4)s3)nn2)ccc1F (stereo not drawn) [Compound 654] | 8.15 | – |
| Nc1nnc(CCCCc2ccc(NC(=O)Cc3cccc(OC(F)(F)F)c3)nn2)s1 [Compound 657, N-(6-(4-(5-amino-1,3,4-thiadiazol-2-yl)butyl)pyridazin-3-yl)-2-(3-(trifluoromethoxy)phenyl)acetamide] | – | pIC50 (P493-6 (myc "on") cells; read-out: Cell prolif P493 72 h IC50, P493-6 cells, 72 h): 5.82 |
| COc1cccc(CC(=O)Nc2nnc(CCCCc3ccc(NC(=O)Cc4cccc(OC(F)(F)F)c4)nn3)s2)c1 [Compound 658] | – | pIC50 [1, 3]: 8.30 |
| O=C(Cc1cccc(OC(F)(F)F)c1)Nc1ccc(CCCCc2nnc(NC(=O)Cc3cc(F)ccc3F)s2)nn1 [Compound 659] | – | pIC50 [1, 3]: 8.00 |
| O=C(Cc1cccc(OC(F)(F)F)c1)Nc1ccc(CCCCc2nnc(NC(=O)Cc3cc(F)cc(F)c3)s2)nn1 [Compound 662] | – | pIC50 [1, 3]: 8.15 |
| O=C(Cc1ccccc1)Nc1ccc(CCCCc2nnc(NC(=O)Cc3cccc(OC(F)F)c3)s2)nn1 [Compound 664] | 7.22 | – |
| O=C(Cc1cccc(OC(F)(F)F)c1)Nc1ccc(CCCCc2nnc(NC(=O)Cc3cccc(OC(F)F)c3)s2)nn1 [Compound 668] | – | pIC50 [1, 3]: 8.05 |
| O=C(Cc1cccc(OC(F)(F)F)c1)Nc1ccc(CCCCc2nnc(NC(=O)Cc3cccc(OCC(F)(F)F)c3)s2)nn1 [Compound 669] | – | pIC50 [1, 3]: 7.68 |
| O=C(Cc1cccc(OC(F)(F)F)c1)Nc1ccc(CCCCc2nnc(NC(=O)Cc3ccncc3)s2)nn1 [Compound 672] | – | pIC50 [1, 3]: 8.00 |
| [2H]C([2H])(CCc1nnc(NC(=O)Cc2ccccn2)s1)C([2H])([2H])c1ccc(NC(=O)Cc2cccc(OC(F)(F)F)c2)nn1 [Compound 727] | – | pIC50 (P493-6 (myc "on") cells; read-out: Cell prolif P493 72 h IC50, 72 h): 7.92 |
| O=C(Cc1ccccc1)Nc1ccc(CCCCc2ccc(NC(=O)Cc3ccccc3)nn2)nn1 [Compound 1038] | – | pIC50 (P493-6 (myc "on") cells; P493-6, 72 h, read-out: Cell prolif P493 72 h IC50, P493 cells, 72 h): 5.82 |
